Measured values reported in PMC7320160, “In planta study of photosynthesis and photorespiration using NADPH and NADH/NAD^+ fluorescent protein sensors” (Nature Communications, 2020).

Target: T1, iNAP1
T1 construct: gene rex; 6xHis N-terminal, E. coli BL21(DE3) pLys
Experiment: sensor fluorescence titration, excitation […] nm, emission […] nm
Type: binding
Conditions: 22 °C, in vitro, pseudocytosol medium pH 7.5, 0.5 μM sensor

Kd: 300 nM
SMILES: NC(=O)C1=CN([C@@H]2O[C@H](COP(=O)(O)OP(=O)(O)OC[C@H]3O[C@@H](n4cnc5c(N)ncnc54)[C@H](OP(=O)(O)O)[C@@H]3O)[C@@H](O)[C@H]2O)C=CC1 [NADPH]
